The first series concerns Southern Root-Knot Nematode (Meloidgyne incognita). The series is described as follows: Test on southern root-knot nematode (soil incorporation). Type of series: in vivo. Set-up: key: 0: No knot was formed; 1: Knots were formed to a slight degree; 2: Knots were formed to a moderate degree; 3: Knots were formed to a heavy degree; 4: Knots were formed to the heaviest degree. The settings on record: 7 ml of 1600 ppm solution to 300 ml contaminated soil, tomato seedling, three to four weeks after transplantation. On the procedure:
Test on Southern Root-Knot Nematode (Meloidgyne incognita) (Soil Incorporation)
To 300 ml of the soil contaminated by southern root-knot nematode, 7 ml of a chemical solution having the concentration of the compound of the present invention adjusted to be 1600 ppm, is poured, followed by mixing so that the compound is uniformly dispersed. The treated soil is put into a pot (diameter: 9 cm, height: 8 cm), and then a tomato seedling in 2-leaf stage is transplanted and placed in a greenhouse. After three to four weeks from the transplantation of the tomato, the root knot index is determined based on the following standards. […] For example, the compound Nos. 1-25, 1-26, 1-73, 1-100, 1-122, 1-123, 1-125, 1-127, 1-130, 1-131, 1-133, 1-136, 1-137, 1-139, 1-140, 1-172, 1-173, 1-177, 5-5, 5-9, 5-11, 5-16, 5-20, 8-2, 8-5, 13-2, 13-4, 13-6, 13-7, 13-18, 13-19, 13-44, 13-45, 16-32, 16-37 and 16-38 were at a level of a root knot index of not more than 1.
In the case of `CC(C)(NC(=O)c1ccccc1C(N)=O)C(=O)c1ccc(Cl)cc1` [Compound No. 1-122, 2-aminocarbonyl-N-[(4′-chloro-1,1-dimethyl)phenacyl]benzamide], the root knot index came out at 1.
Still for that read-out and setting: then `CC(C)(NC(=O)c1c(F)cccc1F)C(=O)c1ccc(OS(=O)(=O)C(F)(F)F)cc1` [Compound No. 1-26, 2,6-difluoro-N-[(1,1-dimethyl-4′-trifluoromethylsulfonyloxy)phenacyl]benzamide], with 1.
Same read-out and setting: then “2-fluoro-N-[2-[(2,2,3,3,-tetrafluoro-5-methyl-1,4-benzodioxan-6-yl)carbonyl]-2-propyl]benzamide [Compound No. 16-37]”, with 1; and `CC(C)(NC(=O)c1c(F)cccc1F)C(=O)c1ccc(OS(C)(=O)=O)cc1` [Compound No. 1-25, 2,6-difluoro-N-[(1,1-dimethyl-4′-methylsulfonyloxy)phenacyl]benzamide], with 1.

System in the next series: not given
Assay: not given
Details: not given
The compound `CC(C)(NC(=O)c1c(F)cccc1F)C(=O)c1ccc(C(F)(F)F)cn1` [Compound No. 8-43, 2,6-difluoro-N-[2-(5-trifluoromethyl-2-pyridylcarbonyl)-2-propyl]benzamide] returned a melting point of 116 to 119 °C.
`CC(C)(NC(=O)c1c(F)cccc1F)C(=O)c1ccsc1` [Compound No. 6-5, 2,6-difluoro-N-[1-methyl-1-(3-thenoyl)ethyl]benzamide] showed a melting point of 139 to 142 °C.

Broadly, the melting point is the temperature of the solid-liquid transition.

Source of the values: patent publication US8093241B2, “Acid amide derivatives, process for their production and pesticides containing them” (Ishihara Sangyo Kaisha, Ltd., priority 2001, dated 2012).
